In US7517907B2, “Pharmaceutical/cosmetic compositions comprising a novel RARbeta receptor-activating ligand” (Galderma Research & Development, priority 2003, dated 2009):

Tests used:
[1] = target: T1, RARalpha (Homo sapiens, UniProt P10276); assay: Transactivation assay (luciferase reporter, HeLa stable transfectants), RARalpha; type: cell-based
T1 sequence (P10276 183-417 limits assumed): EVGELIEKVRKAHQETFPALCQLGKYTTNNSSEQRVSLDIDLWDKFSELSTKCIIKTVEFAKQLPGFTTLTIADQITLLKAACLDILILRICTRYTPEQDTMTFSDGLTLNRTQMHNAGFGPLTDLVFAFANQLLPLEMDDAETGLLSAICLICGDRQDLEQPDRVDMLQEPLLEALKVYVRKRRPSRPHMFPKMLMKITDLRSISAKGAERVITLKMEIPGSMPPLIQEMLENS
Excerpt: [The procedure below names another target; the source lists this target under the same test.] (§1) The compounds according to the invention have activating properties on RARbeta-type receptors. This RARbeta receptor-activating activity can in particular be measured in a transactivation assay by means of the dissocation constant Kdapp (apparent), the AC50 (concentration giving 50% of the activity of the reference molecule) and also by means of the % activation.
(§2) The activation of receptors with an agonist (activator) in HeLa cells leads to the expression of a reporter gene, luciferase, which, in the presence of a substrate, generates light. The activation of the receptors can thus be measured by quantifying the luminescence produced after incubating the cells in the presence of a reference antagonist. Activating products will displace the antagonist from its site, thus allowing activation of the receptor. The activity is measured by quantifying the increase in light produced. This measurement makes it possible to determine the activating activity of the compound according to the invention.
(§3) In this study, a constant is determined which represents the affinity of the molecule for the receptor. […]
(§4) These crossed curves make it possible to determine the AC50 values (concentration at which 50% activation is observed) for the reference ligand at various concentrations of test product. These AC50 values are used to calculate the Schild regression by plotting a straight line corresponding to the Schild equation (“quantitation in receptor pharmacology” Terry P. Kenakin, Receptors and Channels, 2001, 7, 371-385).
(§5) In the case of an agonist, an AC50 value (concentration giving 50% activity) is calculated by plotting the curve of the product at the concentration of the reference ligand that gives 80% activation. The % activation which corresponds to the maximum level of activity obtained is also measured. […]
(§6) The culture medium is removed by turning the plates over, and 100 μl of a 1:1 PBS/luciferin mixture are added to each well. After 5 minutes, the plates are read using a luminescence reader.

[2] = target: T2, RARbeta (Homo sapiens, UniProt P10826); assay: Transactivation assay (luciferase reporter, HeLa stable transfectants), RARbeta; type: cell-based
T2 construct: RARbeta Kdapp; RARbeta AC50; other: maximum level of activity obtained, relative to 100% control total agonist
T2 sequence (P10826 183-417 limits assumed): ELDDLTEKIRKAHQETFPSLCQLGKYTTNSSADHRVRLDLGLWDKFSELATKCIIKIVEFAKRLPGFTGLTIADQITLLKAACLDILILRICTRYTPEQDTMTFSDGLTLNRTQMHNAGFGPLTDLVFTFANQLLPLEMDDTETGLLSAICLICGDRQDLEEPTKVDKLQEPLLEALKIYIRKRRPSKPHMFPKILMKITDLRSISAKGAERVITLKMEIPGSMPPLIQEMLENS
Excerpt: as §1, §2
(§7) In this study, a constant is determined which represents the affinity of the molecule for the receptor. Since this value can fluctuate depending on the basal activity and the expression of the receptor, it is referred to as the Kd apparent (Kdapp).
(§8) To determine this constant, “crossed curves” of the test product against a reference antagonist, otherwise referred to as reference ligand, 4-(5,5-dimethyl-8-p-tolyl-5,6-dihydronaphthalen-2-ylethynyl)benzoic acid, are realized in 96-well plates. The test product is used at 10 concentrations and the reference antagonist at 7 concentrations. In each, the cells are in contact with a concentration of the test product and with a concentration of the reference antagonist, 4-(5,5-dimethyl-8-p-tolyl-5,6-dihydronaphthalen-2-ylethynyl)benzoic acid. […]
as §4, §5, §6

[3] = test system: RARbeta; assay: as above; type: cell-based, human; settings: RARbeta Kdapp to RARalpha or RARgamma Kdapp
Excerpt: as §1, §2, §7, §8, §4, §5, §6

[4] = target: T3, RARgamma (Homo sapiens, UniProt P13631); assay: Transactivation assay (luciferase reporter, HeLa stable transfectants), RARgamma; type: cell-based
T3 sequence (P13631 185-419 limits assumed): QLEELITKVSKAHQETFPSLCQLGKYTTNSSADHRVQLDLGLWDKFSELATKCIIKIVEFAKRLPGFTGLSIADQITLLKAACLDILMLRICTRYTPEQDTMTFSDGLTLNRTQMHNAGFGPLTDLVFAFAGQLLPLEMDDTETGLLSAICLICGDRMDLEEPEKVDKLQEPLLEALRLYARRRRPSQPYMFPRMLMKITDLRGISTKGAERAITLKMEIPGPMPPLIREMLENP
Excerpt: [The procedure below names another target; the source lists this target under the same test.] as §1, §2, §3, §4, §5, §6

[5] = concentration giving 50% activity, at the reference ligand concentration giving 80% activation, HeLa cells
[6] = maximum level of activity obtained, relative to 100% control total agonist

Kd ([1]; apparent Kd from Schild regression, crossed curves against reference antagonist, HeLa cells, read-out: RARalpha Kdapp): 8000 nM | AC50 [1, 5]: 1800 nM | RARalpha % activation [1, 6]: 20% | Kd ([2]; apparent Kd from Schild regression, crossed curves against reference antagonist, HeLa cells, read-out: RARbeta Kdapp): 60 nM | AC50 [2, 5]: 12 nM | RARbeta % activation [2, 6]: 100% | Kd ([4]; apparent Kd from Schild regression, crossed curves against reference antagonist, HeLa cells, read-out: RARgamma Kdapp): 4000 nM | AC50 [4, 5]: 2000 nM | RARgamma % activation [4, 6]: 40%
Compound: CC1(C)OCC(COc2ccc(-c3ccc4cc(C(=O)O)ccc4c3)cc2C23CC4CC(CC(C4)C2)C3)O1 (stereo not shown) [Ex. 1, 6-[3-adamantan-1-yl-4-(2,2-dimethyl[1,3]dioxolan-4-ylmethoxy)phenyl]naphthalene-2-carboxylic acid]
ratio of the Kdapp values R [3]: 0.015
